Here are results for 13 compounds from patent publication US6495699B2, “Metalloproteinase inhibitors, pharmaceutical compositions containing them, and their use” (Agouron Pharmaceuticals Inc., priority 1996, dated 2002).

The target in series [1] is T1, catalytic domain of human stromelysin (Hsln) (Homo sapiens, UniProt P08254).
T1 construct: The catalytic domain of human stromelysin (Hsln) was obtained by expression and purification of a C-terminally truncated prostromelysin-1; made in house; host or cells: E. coli BL21
Briefly: Fluorometric MCA-peptide hydrolysis assay, stromelysin (Hsln). The series is classed as biochemical. As to conditions: apparent Ki; 10 μM MCA peptide substrate, 37° C., pH 7.5; read-out: Hsln (Ki,app). Here is the method:
The catalytic domain of human stromelysin (Hsln) was obtained by expression and purification of a C-terminally truncated prostromelysin-1 from E. coli host BL21 (see Marcy et al. Biochem., 1991, 30, 6476). The subsequent activation of the mature form (Hsln) was completed with 2 mM APMA for 1 hour at 37° C., followed by separation using a sizing column.
(§1) Assays were performed in assay buffer (50 mM Tricine pH 7.5, 200 mM sodium chloride, 10 mM calcium chloride, 0.5 mM zinc acetate containing 2% dimethyl sulfoxide (DMSO)) once the substrate and inhibitor were diluted into it. Stock solutions of inhibitors were prepared in 100% DMSO. Stock solutions of the substrate were prepared in 100% DMSO at a concentration of 6 mM.
(§2) The assay method was based on the hydrolysis of MCA-Pro-Leu-Gly-Leu-DPA-Ala-Arg-NH2 (American Peptide Co.) at 37° C. (see Knight, C. G. et al., FEBS, 1992, 296, 263-266). The fluorescence changes were monitored with a Perkin-Elmer LS-50B fluorimeter using an excitation wavelength of 328 nm and an emission wavelength of 393 nm. The substrate concentration used in the assays was 10 μM. The inhibitor was diluted into the assays from a solution in 100% DMSO, and controls substituted an equal volume of DMSO so that the final DMSO concentration from inhibitor and substrate dilution in all assays was 2%. […] Proper determination of steady-state rates of substrate cleavage required assay lengths of 60 minutes to allow for complete equilibration of the enzyme-inhibitor complex.
(§3) The Km for the MCA peptide substrate with the matrix metalloproteinases is quite high and exceeds its solubility under assay conditions. Consequently, the apparent Ki (Ki,app) was determined to describe the strength of inhibition. However, in this case, Ki,app would be essentially equal to Ki since [S]<<Km. For the determination of Ki,app, the concentration of the inhibitor was varied at a constant and low concentration of substrate and the steady-state rates of fluorescence change determined. In most cases absorptive quench due to the presence of ligand was not observed. For slow-binding inhibitors, onset of inhibition curves were collected for at least 45 minutes so that equilibrium was established. Steady-state rates of fluorescence change were obtained by fitting a curve to an equation for a single exponential decay containing a linear phase. The fitted value of the linear phase was taken as the steady-state rate. The steady-state rates were fitted to the Michaelis equation describing competitive inhibition by non-linear methods. Data resulting from tight-binding inhibition was analyzed, and Ki,app determined by fitting the data to the tight-binding equation of Morrison (Biochem. Biophys. Acta, vol. 185, pp. 269-286 (1969)) by non-linear methods.

In a further series the target is T2, Human matrilysin (Matr) (Homo sapiens, UniProt P09237).
T2 construct: the catalytic domain was liberated by treatment with 2 mM APMA at 37° C. for 2 hours; ubiquitin (cleaved yes); made in house; host or cells: E. coli
T2 sequence (P09237 95-267): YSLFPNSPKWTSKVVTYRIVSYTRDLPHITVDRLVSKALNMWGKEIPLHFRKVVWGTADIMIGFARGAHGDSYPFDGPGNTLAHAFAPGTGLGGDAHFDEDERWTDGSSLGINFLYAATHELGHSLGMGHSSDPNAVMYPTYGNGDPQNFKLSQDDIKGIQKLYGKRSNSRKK
Nature of the series: Fluorometric MCA-peptide hydrolysis assay, matrilysin (Matr). The following applies: apparent Ki; 10 μM MCA peptide substrate, 37° C., pH 7.5; read-out: Matr (Ki,app). The series is classed as biochemical. Here is the method:
Human matrilysin (Matr) was expressed in E. coli as a fusion protein with ubiquitin. After purification of the matrilysin/ubiquitin fusion from inclusion bodies, the catalytic domain was liberated by treatment with 2 mM APMA at 37° C. for 2 hours. Final purification was complete using copper chelate chromatography.
as §1, §2, §3

Series [2] deals with T3, human progelatinase A (GelA), catalytic and fibronectin-like portion (Homo sapiens, UniProt P08253).
T3 construct: The catalytic and fibronectin-like portion of human progelatinase A (GelA) was expressed as a fusion protein with ubiquitin; ubiquitin; made in house; host or cells: E. coli
Briefly: Fluorometric MCA-peptide hydrolysis assay, gelatinase A (GelA). The series is classed as biochemical. As to conditions: apparent Ki; 10 μM MCA peptide substrate, 37° C., pH 7.5. The method, then: The catalytic and fibronectin-like portion of human progelatinase A (GelA) was expressed as a fusion protein with ubiquitin in E. Coli. Assays were carried out on autocatalytically activated material.
as §1, §2, §3

In series [3] the target is T4, human collagenase-3 (Coll3) (Homo sapiens, UniProt P45452).
T4 construct: the catalytic domain was liberated by treatment with 2 mM APMA at room temperature overnight; ubiquitin (N, cleaved yes); made in house; host or cells: E. coli
Nature of the series: Fluorometric MCA-peptide hydrolysis assay, collagenase-3 (Coll3). The following applies: apparent Ki; 10 μM MCA peptide substrate, 37° C., pH 7.5; read-out: Coll3 (Ki,app). The series is classed as biochemical. Here is the method: The propeptide and catalytic domain of human collagenase-3 (Coll3) was expressed in E. coli as an N-terminal fusion protein with ubiquitin. After purification of the fusion from inclusion bodies, the catalytic domain was liberated by treatment with 2 mM APMA at room temperature overnight. Final purification was completed using copper chelate chromatography.
as §1, §2
as §3, with “In most cases absorptive quench due to the presence of ligand was not observed.” left out

Molecules are shown by their SMILES. Counter-ions that a name gives are not always drawn.

T1 sequence (P08254 100-272 limits assumed): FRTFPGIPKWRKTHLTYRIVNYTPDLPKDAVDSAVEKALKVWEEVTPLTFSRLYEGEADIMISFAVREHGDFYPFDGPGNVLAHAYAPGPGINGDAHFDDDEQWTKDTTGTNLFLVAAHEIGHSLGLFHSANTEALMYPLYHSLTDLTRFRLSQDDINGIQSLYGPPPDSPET
T3 sequence (P08253 110-465 limits assumed): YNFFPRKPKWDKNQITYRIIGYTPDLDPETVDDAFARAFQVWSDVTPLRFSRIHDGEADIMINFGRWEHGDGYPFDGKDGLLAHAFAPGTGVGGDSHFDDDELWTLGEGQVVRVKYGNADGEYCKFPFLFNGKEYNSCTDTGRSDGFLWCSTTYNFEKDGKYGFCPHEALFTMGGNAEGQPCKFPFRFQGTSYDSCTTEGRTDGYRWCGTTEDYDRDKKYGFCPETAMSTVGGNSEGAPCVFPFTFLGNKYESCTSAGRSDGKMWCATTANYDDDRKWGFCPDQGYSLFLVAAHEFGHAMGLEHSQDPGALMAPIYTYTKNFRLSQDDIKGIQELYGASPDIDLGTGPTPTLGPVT

One may read the melting point as the temperature, or range, at which the solid turns liquid. On to `CC(C)(C)[C@H](NC(=O)[C@@H](CC(=O)O)n1ccc(-c2ccc(-c3ccc(C#N)cc3)cc2)c1)C(=O)Nc1ccncc1` (as salt: salt) [Example 5(d), 3(R)-[3-(4′-Cyanobiphenyl-4-yl)-1H-pyrrol-1-yl]-N-[2,2-dimethyl-1(S)-(pyridin-4-ylcarbamoyl)propyl]succinamic Acid Formate Salt], for which the melting point was 134 to 136 °C.

In turn, `CC(C)(C)[C@@H](CO)NC(=O)C(CC(=O)O)n1cnc(-c2ccc(-c3ccccc3)cc2)c1` (mixture of isomers) [Example 18(b), 3(RS)-(3-Biphenyl-4-yl-1H-imidazol-1-yl)-N-(2,2-dimethyl-1(S)-hydroxymethylpropyl)succinamic Acid] had a melting point of 145 to 150 °C. In addition, the Ki in series [1] was 3000 nM. For the same compound, the Ki on Human matrilysin (Matr) was more than 100000 nM.

As to `CC(C)(O)C(CO)NC(=O)[C@@H](CC(=O)O)n1ccc(-c2ccc(-c3ccccc3)cc2)c1` (stereo in doubt) [Example 1(i), 3(R)-[3-(Biphenyl-4-yl)-1H-pyrrol-1-yl]-N-[2-hydroxy-1(S)-(hydroxymethyl)-2-methylpropyl]succinamic Acid], the melting point was 150 to 152 °C. Further, the Ki in series [1] was 113 nM. The GelA (Ki,app) in series [2] is 8 nM. Further, the Ki in series [3] turned out to be 89.6 nM.

`CC(C)(C)[C@H](NC(=O)C(CC(=O)O)c1ccsc1)C(=O)Nc1ccncc1` (stereo in doubt) [Example 17(c), N-[2,2-Dimethyl-1(S)-(pyridin-4-ylcarbamoyl)-propyl]-3(R)-thien-3-yl-succinamic Acid]: the melting point is 205 °C (dec.). The Ki in series [1] was determined as 935 nM. Also, the GelA (Ki,app) in series [2] turned out to be 157 nM. The Ki at Human matrilysin (Matr) stood at 156 nM.

Consider `O=C(O)C[C@H](C(=O)N[C@H](CO)Cc1ccccc1)n1ccc(-c2ccc(-c3ccccc3)cc2)c1` [1(a), N-(1(S)-Benzyl-2-hydroxyethyl)-3(R)-[3-(biphenyl-4-yl)-1H-pyrrol-1-yl]succinamic Acid], for which the Ki in series [1] came to 65 nM; in series [3], 30 nM; at Human matrilysin (Matr) it was 1000 nM. Besides, the GelA (Ki,app) in series [2] amounted to 5.4 nM.

Regarding `CCCc1ccc(-c2ccn([C@H](CC(=O)O)C(=O)N[C@H](C(=O)NC)C(C)(C)C)c2)cc1` [Example 1(j), N-[2,2-Dimethyl-1(S)-(methylcarbamoyl)propyl]-3(R)-[3-(4-propylphenyl)-1H-pyrrol-1-yl]succinamic Acid], the melting point was 104 to 106 °C. Moreover, in series [1], the Ki is 133 nM. Further, the GelA (Ki,app) in series [2] was determined as 1.43 nM. Moreover, the Ki in series [3] is 9.43 nM.

Turning to `CC(=O)[C@H](CC(C)C)NC(=O)[C@@H](CC(=O)O)n1ccc(-c2ccc(-c3ccccc3)cc2)c1` [Example 2, N-(1(S)-Acetyl-3-methylbutyl)-3(R)-[3-(biphenyl-4-yl)-1H-pyrrol-1-yl)succinamic Acid], the Ki in series [1] came out at 89 nM; in series [3] it was 123 nM; on Human matrilysin (Matr) it was 400 nM. For the same compound, in series [2], the GelA (Ki,app) stood at 6.2 nM.

In turn, `CC(C)(C)[C@@H](CO)NC(=O)[C@@H](CC(=O)O)n1ccc(-c2ccc(-c3ccc(C(N)=O)cc3)cc2)c1` [Example 4(c), 3(R)-[3-(4′-Carbamoylbiphenyl-4-yl)-1H-pyrrol-1-yl]-N-(1(S)-hydroxymethyl-2,2-dimethyl-propyl)succinamic Acid] yielded a melting point of 192 to 194 °C. Further, in series [1], the Ki came to 64 nM. Also, the GelA (Ki,app) in series [2] is 7.2 nM. Further, the Ki on Human matrilysin (Matr) was determined as 2530 nM.

With `CC(C)C[C@H](NC(=O)[C@@H](CC(=O)O)n1ccc(-c2ccc(-c3ccncc3)cc2)c1)c1ncc[nH]1.O=CO` [Example 7(c), N-[1(S)-(1H-Imidazol-2-yl)-3-methylbutyl]-3(R)-[3-[4-(pyridin-4-yl)phenyl]-1H-pyrrol-1-yl]succinamic Acid Formate Salt], the Ki in series [1] stood at 26 nM; in series [3] it was 1.3 nM; on Human matrilysin (Matr), 5330 nM. Also, the GelA (Ki,app) in series [2] was 0.055 nM.

Compound `O=C(C[C@H](C(=O)N[C@H]1Cc2cn(c3ccccc23)CCCCCCNC1=O)n1cccc1)NO` [Example 8(c), N ^4Hydroxy-N^1-(9-oxo-1,8-diaza-tricyclo[10.6.1.0^13,18]nonadeca-12(19),13,15,17-tetraen-10S-yl)-3(R)-1H-(pyrrol-1-yl)succinamide] came in with a melting point of 158 to 165 °C.

For the compound `CCC[C@H](C(=O)O)[C@H](C(=O)N[C@H](CO)Cc1ccccc1)n1ccc(-c2ccc(-c3ccccc3)cc2)c1` [Example 10(a), 2S-[1R-(1(S)-Benzyl-2-hydroxyethylcarbamoyl)-(3-biphenyl-4-yl-1H-pyrrol-1-yl)-methyl]-pentanoic Acid], the melting point was 179 to 181 °C (dec.). In addition, the GelA (Ki,app) in series [2] amounted to 3.3 nM. In addition, in series [3], the Ki was 50 nM. For the same compound, on Human matrilysin (Matr), the Ki is 617 nM.

With `CC(C)C[C@H](NC(=O)[C@@H](CC(=O)O)c1ccn(-c2ccc(-c3ccc(C#N)cc3)cc2)c1)c1ncc[nH]1` [Example 14(c), 3(S)-[1-(4′-Cyanobiphenyl-4-yl)-1H-pyrrol-3-yl]-N-[1(S)-(1H-imidazol-2-yl)-3-methylbutyl]succinamic Acid], the melting point was 206 to 210 °C (dec.). For the same compound, the Ki in series [1] came out at 17.7 nM. Moreover, the GelA (Ki,app) in series [2] is 0.044 nM.

`O=C(O)C[C@H](C(=O)N[C@H](CO)Cc1ccccc1)n1cc(-c2ccc(-c3ccccc3)cc2)cn1` [Example 16, N-(1(S)-Benzyl-2-hydroxyethyl)-3(R)-[4-(biphenyl-4-yl)-pyrazol-1-yl]succinamic Acid]: the melting point lay in the range of 154 to 159 °C. Also, the Ki in series [1] worked out at 1500 nM. The GelA (Ki,app) in series [2] was 81 nM. On Human matrilysin (Matr), the Ki was found to be 63000 nM.
